In US8440813B2, “Antiviral nucleoside analogs” (BioCryst Pharmaceuticals, Inc., priority 2007, dated 2013):

melting point [°C]	SMILES
181	CN(C)c1ncnn2c([C@@H]3O[C@H](CO)[C@@H](O)[C@@]3(C)O)ccc12 [Example 2, (2S,3R,4R,5R)-2-(4-(Dimethylamino)pyrrolo[1,2-f][1,2,4]triazin-7-yl)-5-(hydroxymethyl)-3-methyltetrahydrofuran-3,4-diol]
128 to 131	C=Cc1cc([C@@H]2O[C@H](CO)[C@@H](O)[C@@]2(C)O)n2ncnc(N)c12 [Example 4, (2S,3R,4R,5R)-2-(4-Amino-5-vinylpyrrolo[1,2-f][1,2,4]triazin-7-yl)-5-(hydroxymethyl)-3-methyltetrahydrofuran-3,4-diol]
